Results from patent US20080287469A1, “Phosphoinositide 3-Kinase Inhibitors for Inhibiting Leukocyte Accumulation” (priority 2005, published 2008).

What was measured:
[1] = test system: neutrophils on TNFα-inflamed venular endothelium of the cremaster muscle; test: Intravital microscopy of TNFα-inflamed cremaster muscle venules, GFP+/− mice; type: in vivo
Text: To determine if PI3Kδ contributes to leukocyte accumulation in inflamed tissues, the ability of leukocytes to interact with cytokine-stimulated endothelial cells in microvessels in the cremaster muscle of mice and to transmigrate was examined. Animals heterozygous for GFP expression under the murine lysozyme M locus control, which rendered neutrophils and other granulocytes visible by epifluorescence intravital microscopy, were used to quantitate leukocyte interactions with the vessel wall.
Mice in which green fluorescent protein (GFP) was knocked into the lysozyme M locus or the PI3Kδ catalytic subunit was deleted were generated as previously described [Faust et al., Blood, 96:719-726 (2000); and, Clayton et al., J. Exp. Med., 196:753-763 (2002)]. Subsequent matings were performed to yield mice that were heterozygous for GFP expression but deficient in PI3Kδ expression (mixed 129/Sv-C57BL/6 background) (GFP^+/−/PI3Kδ^−/− animals). All animals were handled in accordance with policies administered by institutional Animal Care and Use Committees.
The surgical preparation of animals for all in vivo studies was performed using standard techniques [see, e.g., Coxon, Immunity, 5:653-666 (1996)]. The cremaster muscle (CM) in GFP^+/− or GFP^+/−/PI3Kδ^−/− animals was inflamed with an intrascrotal injection of murine recombinant TNFα (20 ng/mouse). 2.5 hours after TNFα injection, the tissue was surgically exposed and positioned over a circular glass coverslip (25 mm) on a custom-built plexiglass stage for viewing. The stage was then placed on an intravital microscope (IV-500; Mikron instruments, San Diego, Calif.) equipped with a silicon-intensified camera (VE1000SIT; Dage mti, Michigan City, Ind.) and the tissue kept moist by superfusion with thermo-controled (37° C.) bicarbonate-buffered saline. GFP-expressing cells (predominantly neutrophils, also including fewer monocytes) were visualized through X20 or X40 water immersion objectives (Acroplan, Carl Zeiss Inc.) by epifluorescence from a Xenon arc stroboscope (Chadwick Helmuth, El Monte, Calif.) as they passed through the venous microcirculation of the cremaster muscle. Rolling fraction was defined as the percentage of cells that interact with a given venule in the total number of cells that enter that venule during the same time period. The sticking fraction was defined as the number of rolling cells that became stationary for >30 s post-superfusion of the CM with LTB4 (0.1 μM). Venular shear rates were determined from optical Doppler velocimeter measurements of centerline erythrocyte velocity. The extent of leukocyte transmigration was evaluated at 30 and 60 min after application of LTB4. Video images were recorded using a Hi8 VCR (Sony, Boston, Mass.), and analysis of performed using a PC-based image analysis system [Doggett et al., Biophys. J., 83:194-205 (2002)].
In order for leukocyte transmigration to occur, engagement of the leukocyte integrins with ICAMs expressed on venular endothelium (“firm adhesion”) is necessary for leukocytes to stably adhere to the vessel wall (in addition to the requirement for selectin-mediated tethering and rolling) [Dunne et al., Blood, 99:336-341 (2002)]. To determine the role of PI3Kδ in firm adhesion, the ability of leukocytes rolling on inflamed venular endothelium to undergo integrin-mediated firm adhesion in response to an activating stimulus was investigated in vivo.
These experiments were performed in accordance with the procedures described in Example 2.

[2] = Number of circulating neutrophils in treated mice; type: in vivo; settings: inhibitor treated animals
Text: The reduction in cell adhesion in these animals was not due to inhibitor-induced leukopenia as the number of circulating neutrophils was similar in both the control and experimental groups (2,857.3±803 and 2,730.7±1132.6 for control and inhibitor treated animals, respectively). The absolute number of circulating neutrophils in animals deficient in PI3Kδ was 2,997.7±776.1 (n=8).

PDK1 = test: Activity of PDK1 immunoprecipitated from TNFα-stimulated HUVECs; type: cell-based, human; settings: incubation of intact HUVECs with compound
Text: Thus, PI3Kδ activity is required for PDK1 and Akt function in endothelium as previously described for neutrophils.

ICAM-1 = test: LTB4-triggered firm adhesion of neutrophils to CHO cells transfected with human ICAM-1; type: cell-based; settings: 2 μM; LTB4 0.1 μM; wall shear stresses 2 and 4 dyn/cm^2
Method: Purified neutrophils (2×10^6/ml in HBSS buffer containing 2 mM MgCl2) were incubated with 2 μM of a compound in accordance with the invention prior to conducting the adhesion assays. […] Treated neutrophils were then stimulated with LTB4 (0.1 μM) and allowed to bind in stasis to CHO cells transfected with human ICAM-1 before subjecting them to physiological wall shear stresses of 2 and 4 dyn/cm^2. ICAM-1 expression on these cells was confirmed by flow cytometry using mAb R 1/1 (fluorescence intensity>103, data not shown). […] For example, more than 80% of LTB4-stimulated neutrophils remained bound to the ICAM-1 substrate in the presence or absence of an inhibitor in accordance with the invention. The percentage of cells that remained adherent after 20 seconds (s) at each wall shear stress was determined by off-line video analysis.

[3] = test system: neutrophil accumulation in BAL fluid; test: LPS-induced acute lung injury model, BAL fluid; type: in vivo; settings: for reduction in the accumulation of neutrophils in BAL fluid: one hour prior to LPS challenge
Method: Lewis rats to be treated with an inhibitor in accordance with the invention or vehicle control (PEG400) were first challenged with LPS [Asti et al., Pulm. Pharmacol Ther., 13:61-69 (2000)]. Briefly, the trachea was exposed by standard surgical procedures and 100 μl saline solution or saline containing LPS (Escherichia Coli Serotype 0111:B4, Sigma) was instilled. Six hours following the challenge, rats were euthanized and the bronchoalveolar lavage (BAL) fluid was collected for cell differentials. Total white blood cell (WBC) and neutrophil counts were determined (Hemavet™ 850 FS cell counter). Cell populations were identified by morphological examination of smears prepared by cytocentrifugation.
Animals received a single oral dose of either a compound in accordance with the invention (25 mg/kg for mice and 20 or 40 mg/kg for rats) or vehicle (PEG-400). Blood samples were subsequently drawn at indicated time points and plasma concentration of the compound determined after liquid-liquid extraction by LC/MS. The lower quantification limit was 50 ng/ml. Plasma samples from control animals (vehicle alone) were used as the blank control.

DNA-PK = DNA-PK (Homo sapiens, UniProt P78527); settings: inhibitor 10 μM; reported by Sadhu et al.; cited from earlier work
CHK1 = CHK1 (Homo sapiens, UniProt O14757); settings: inhibitor 10 μM; reported by Sadhu et al.; cited from earlier work
PKBα (Akt 1) = PKBα (Akt 1) (Homo sapiens, UniProt P31749); settings: inhibitor 10 μM; reported by Sadhu et al.; cited from earlier work
Chain of PKBα (Akt 1) (P31749 whole entry, species assumed): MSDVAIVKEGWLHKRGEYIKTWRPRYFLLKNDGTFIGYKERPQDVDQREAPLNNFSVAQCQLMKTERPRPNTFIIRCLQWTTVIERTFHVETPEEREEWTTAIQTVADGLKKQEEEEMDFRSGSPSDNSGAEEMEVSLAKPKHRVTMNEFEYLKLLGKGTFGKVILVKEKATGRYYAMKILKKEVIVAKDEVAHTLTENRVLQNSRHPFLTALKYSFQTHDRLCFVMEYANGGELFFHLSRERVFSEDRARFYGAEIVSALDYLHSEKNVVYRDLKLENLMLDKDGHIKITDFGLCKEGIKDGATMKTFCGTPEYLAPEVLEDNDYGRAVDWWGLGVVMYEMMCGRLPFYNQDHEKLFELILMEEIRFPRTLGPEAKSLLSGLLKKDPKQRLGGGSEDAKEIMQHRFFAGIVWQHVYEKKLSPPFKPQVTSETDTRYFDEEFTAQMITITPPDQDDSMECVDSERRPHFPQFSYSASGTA

Chain of CHK1 (O14757 whole entry, species assumed): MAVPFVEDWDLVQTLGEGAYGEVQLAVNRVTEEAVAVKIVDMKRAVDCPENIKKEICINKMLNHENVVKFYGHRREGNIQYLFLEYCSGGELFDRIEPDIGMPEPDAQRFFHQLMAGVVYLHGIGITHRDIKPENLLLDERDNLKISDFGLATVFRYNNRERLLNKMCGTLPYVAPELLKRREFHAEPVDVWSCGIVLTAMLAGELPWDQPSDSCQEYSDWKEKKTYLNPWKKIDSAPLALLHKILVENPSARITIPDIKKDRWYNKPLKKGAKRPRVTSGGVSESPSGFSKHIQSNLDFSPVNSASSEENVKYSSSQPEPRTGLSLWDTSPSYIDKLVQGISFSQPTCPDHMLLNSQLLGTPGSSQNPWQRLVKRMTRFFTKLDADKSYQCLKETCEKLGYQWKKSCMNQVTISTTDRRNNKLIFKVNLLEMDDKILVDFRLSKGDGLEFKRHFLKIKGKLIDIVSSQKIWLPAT

## Cc1ccccc1-n1c(Cn2cnc3c(N)ncnc32)nc2cccc(C)c2c1=O
[1]; GFP+/− animals
  mean rolling velocities of neutrophils on TNFα-inflamed venules: 40.5±12.5 μm/s
[1]; LTB4 superfusion of cremaster muscle
  LTB4-induced migration of neutrophils across inflamed microvessels: diminished
[1]; inflamed cremaster muscle superfused with LTB4
  integrin-mediated firm adhesion of rolling leukocytes in vivo: rapidly transitioned from rolling to firm adhesion
[1]; inhibitor-treated GFP+/− animals
  time the majority of neutrophils rolled before releasing from the vessel wall: < 2 s
[1]; oral, one hour prior to intrascrotal TNFα, GFP+/− animals, vs vehicle
  interactions between circulating granulocytes and venular endothelium: significantly impaired
[1]; vs vehicle treated mice
  decrease in the number of fluorescent cells that attach and roll: > 50%
[2]
  number of circulating neutrophils: 2,730.7±1132.6
PDK1
  kinase activity of PDK1 in response to TNFα: reduced the kinase activity
ICAM-1
  LTB4-stimulated neutrophils remaining bound to the ICAM-1 substrate: more than 80%
[3]; 20 mg per kg oral
  reduction in the accumulation of neutrophils in BAL fluid: approximately 60%
[3]; 40 mg per kg oral
  reduction in the accumulation of neutrophils in BAL fluid: ~80%
[3]; LPS-treated mice that received inhibitor
  TNFα in BAL fluid: still detectable
DNA-PK
  Activity (% of control) ± SD: No inhibition*
CHK1
  Activity (% of control) ± SD: No inhibition*
PKBα (Akt 1)
  Activity (% of control) ± SD: No inhibition*
